The results in this text go back to patent US6506901B2, “Substituted 2-(S)-hydroxy-3-(piperidin-4-yl-methylamino)-propyl ethers and substituted 2-aryl-2-(R)-hydroxy-1-(piperidin-4-yl-methyl)-ethylamine β-3 adrenergic receptor agonists” (Wyeth, priority 2000, dated 2003).

Series [1] deals with β3 human transgenic mice. Nature of the series: Thermogenesis (Oxymax indirect calorimeter) in β3 transgenic (Tg) mice. It counts as in vivo, mice (FVB). The following applies: percent increase in thermogenesis over baseline; for change in vivo at 10 mg/kg: Mus musculus, ip, IP 10 mg/kg. An excerpt: Evaluation in β3 Knockout(KO) and β3 Transgenic(Tg) Mice: The ability of compounds of this invention to treat or inhibit disorders related to insulin resistance or hyperglycemia was also confirmed with representative compounds of this invention in an in vivo standard pharmacological test procedure which compared thermogenesis in transgenic mice (Tg mice) and β3-knockout mice (KO mice).
β3-Adrenergic receptor knockout mice and β3 human transgenic mice are created on an inbred FVB background (Susulic, V. S., et.al., J. Biol. Chem., 1995, 270 (49), 29483-29492). Female FVB β3 transgenic and β3 knockout mice were used to determine in vivo activity and selectivity of β3 agonists. […] These compounds were also selective in being 100-fold less responsive and partial agonists when tested in β1 and β2 transfected CHO cells. Compounds were tested for increased thermogenesis using the Oxymax indirect calorimeter (Columbus Instruments, Columbus, Ohio). Fed animals were placed in chambers for 3 hours to obtain baseline O2 and CO2 values. Eight fed mice were weighed in pairs and placed in 4 chambers, two per chamber. The relative gas content of each chamber was sampled and recorded at 10 to 12 minute intervals. For each sample, energy expenditure values were calculated by the Oxymax and expressed as kcal/hr. After 3 hours of baseline measurement, the mice were removed, treated and replaced in the chambers. The β3 agonists were injected at doses between 0.1 and 20 mg/kg i.p. and between 1.0 and 30 mg/kg for oral administration. Compounds in 10 mM or 10 mg/ml DMSO solutions were suspended in 0.5% methylcellulose: 0.1% tween-80 and injected i.p. or administered by oral gavage. Some compounds were suspended in 5.0% tween-80 for oral administration. Post-treatment kcal/hr values were taken between 40 minutes and 2.5 hours later. The 6 to 10 sample sections of the pre-treatment and post-treatment periods, which appear to best represent stable resting thermogenesis, were selected. Each of these sample values was corrected for body weight and used such that each pair of mice serves as its own baseline for both T test and percent increase in thermogenesis calculations. An ANOVA and a one sided T test (H1: Post>Pre) are performed using the SAS software modified to down weight extreme values. In a separate set of calculations, values that appear to be too high to represent resting thermogenesis are discarded (activity monitor sampling associated spikes in thermogenesis with ambulatory activity). The mean baseline value for each chamber is subtracted from mean post-treatment value for that chamber. This baseline-subtracted value is divided by the mean baseline value and multiplied by 100 to obtain a percent increase in thermogenesis for each chamber. The combined mean percent increase, standard deviation, and standard error of the mean for each chamber is calculated. Compounds were considered active if they were able to produce a statistically significant 15% increase in thermogenesis in β3 transgenic mice and no significant increase in β3 knockout mice.

In series [2] the target is T1, human β3 receptors (Homo sapiens, UniProt P13945).
T1 construct: Full length β3 AR clones (402 amino acids) containing the last 6 amino acids of hβ3—AR; expressed in transfected cells; host or cells: CHO cells
T1 sequence (P13945 whole entry): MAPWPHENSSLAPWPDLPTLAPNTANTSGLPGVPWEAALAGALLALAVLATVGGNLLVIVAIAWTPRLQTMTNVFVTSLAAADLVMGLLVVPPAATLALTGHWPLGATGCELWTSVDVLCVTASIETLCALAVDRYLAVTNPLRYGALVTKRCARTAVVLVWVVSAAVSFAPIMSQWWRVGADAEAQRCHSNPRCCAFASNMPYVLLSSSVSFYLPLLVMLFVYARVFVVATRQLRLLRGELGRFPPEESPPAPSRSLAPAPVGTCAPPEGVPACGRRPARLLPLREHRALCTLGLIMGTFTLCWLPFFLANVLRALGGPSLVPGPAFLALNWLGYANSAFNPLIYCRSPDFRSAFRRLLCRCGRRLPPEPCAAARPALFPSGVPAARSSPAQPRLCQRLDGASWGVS
The experiment in a line: cAMP response (SPA) in CHO cells expressing cloned human β3 adrenergic receptor. It counts as cell-based. The following applies: for EC50: CHO cells expressing human β3 receptor, cAMP, 30 min incubation, 10^−9 M to 10^−5 M; for IA(β3): maximal response compared to the maximal response of isoproterenol at 10^−5 M. The essentials: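 CHO cells transfected with cloned human β3-AR were incubated with compound at 37° C for 30 min, stopped with 0.2N HCl and neutralized. cAMP was measured by SPA. Activity is expressed as per cent of the maximal isoproterenol (10^−5 M) response.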

Counter-ions that a name gives are not always drawn.

Consider `O[C@@H](CNCC1CCN(CCC(F)(F)F)CC1)COc1cccc2[nH]c3ccccc3c12` [Example 10, (2S)-1-(9H-Carbazol-4-yloxy)-3-{[1-(3,3,3-trifluoro-propyl)-piperidin-4-ylmethyl]-amino}-propan-2-ol], for which the change in vivo at 10 mg/kg in series [1] (mouse type hetero) was -15%.

With `CCCCCCCCNC(=O)Nc1ccc(S(=O)(=O)N2CCC(CNC[C@H](O)COc3ccc(O)c4c3CCC(=O)N4)CC2)cc1` [Example 74, 1-[4-(4-{[(2S)-2-Hydroxy-3-(8-hydroxy-2-oxo-1,2,3,4-tetrahydro-quinolin-5-yloxy)-propylamino]-methyl}-piperidine-1-sulfonyl)-phenyl]-3-octyl-urea], the change in vivo at 10 mg/kg in series [1] (mouse type homo) was 18%.

The compound `OCCCCCCCCCCCCN1CCC(CNC[C@H](O)COc2cccc3[nH]c4ccccc4c23)CC1` [Example 30, 12-(4-{[(2S)-3-(9H-Carbazol-4-yloxy)-2-hydroxy-propylamino]-methyl}-piperidin-1-yl)-dodecan-1-ol] gave a melting point of 110 °C. Moreover, in series [2], it took 1.24 µM to reach a half-maximal effect (EC50) and the “IA(β3)” value was found to be 0.53.

On to `CCCCCCNC(=O)Nc1ccc(S(=O)(=O)N2CCC(CNC[C@H](O)COc3ccc(O)cc3)CC2)cc1` [Example 59, 1-Hexyl-3-[4-(4-{[(2S)-2-hydroa-3-(4-hydroxy-phenoxy)-propylamino]-methyl}-piperidine-1-sulfonyl)-phenyl]-urea], for which the change in vivo at 10 mg/kg in series [1] (mouse type homo) came to 5%.

As to `CCCCCCCCNC(=O)Nc1ccc(S(=O)(=O)N2CCC(CNC[C@H](O)COc3ccc(O)cc3)CC2)cc1` [Example 69, 1-[4-(4-{[(2S)-2-Hydroxy-3-(4-hydroxy-phenoxy)-propylamino]-methyl}-piperidine-1-sulfonyl)-phenyl]-3-octyl-urea], the change in vivo at 10 mg/kg in series [1] (mouse type hetero) and in series [1] (mouse type homo) was 24% throughout. For the same compound, the “Thermogenesis, Transgenic Mice, Gavage %” value in series [1] (mouse type hetero, gavage 30 mg/kg) was 14%.

For `O=S(=O)(c1ccc(-n2cccn2)cc1)N1CCC(CNC[C@H](O)COc2ccc(O)cc2)CC1` [Example 93, 4-(2-Hydroxy-3-{[1-(4-pyrazol-1-yl-benzenesulfonyl)-piperidin-4-ylmethyl]-amino}-propoxy)-phenol], the melting point was in the range of 169 to 171 °C. Further, in series [2], the EC50 worked out at 0.347 µM and the “IA(β3)” value came out at 0.99.

`O/N=C1\c2ccccc2-c2c(OC[C@@H](O)CNCC3CCN(c4ccnc5cc(C(F)(F)F)ccc45)CC3)cccc21` (as salt: hydrochloride) [Example 4, 4-((2S)-2-Hydroxy-3-{[1-(7-trifluoromethyl-quinolin-4-yl)-piperidin-4-ylmethyl]-amino}-propoxy)-fluoren-9-one Oxime] registered a melting point of 171 °C.

For the compound `O[C@@H](CNCC1CCN(CCC(F)(F)F)CC1)COc1ccc(Br)c2[nH]c3ccccc3c12` [Example 16, (2S)-1-(1-Bromo-9H-carbazol-4-yloxy)-3-{[1-(3,3,3-trifluoro-propyl)-piperidin-4-ylmethyl]-amino}-propan-2-ol], the melting point worked out at 79 °C.

As to `O=C(Nc1ccc(S(=O)(=O)N2CCC(CNC[C@H](O)COc3ccc(O)cc3)CC2)cc1)Nc1ccccn1` [Example 66, 1-[4-(4-{[(2S)-2-Hydroxy-3-(4-hydroxy-phenoxy)-proplamino]-methyl}-piperidine-1-sulfonyl)-phenyl]-3-pyridin-2-yl-urea], the melting point amounted to 189 °C. Further, the change in vivo at 10 mg/kg in series [1] (mouse type homo) was 4%.

Turning to `O=C(NCc1cc(F)ccc1F)Nc1ccc(S(=O)(=O)N2CCC(CNC[C@H](O)COc3ccc(O)cc3)CC2)cc1` [Example 77, 1-(2,5-Difluoro-benzyl)-3-[4-(4-{[(2S)-2-hydroxy-3-(4-hydroxy-phenoxy)-propylamino]-methyl}-piperidine-1-sulfonyl)-phenyl]-urea], the change in vivo at 10 mg/kg in series [1] (mouse type homo) came out at 4%.

As to `CS(=O)(=O)Nc1cc(OC[C@@H](O)CNCC2CCN(S(=O)(=O)c3ccc(NC(=O)NCc4cc(F)ccc4F)cc3)CC2)ccc1O` [Example 79, N-(5-{(2S)-3-[(1-{4-[3-(2,5-Difluoro-benzyl)-ureido]-benzenesulfonyl}-piperidin-4-ylmethyl)-amino]-2-hydroxy-propoxy}-2-hydroxy-phenyl)-methanesulfonamide], in series [1] (mouse type homo), the change in vivo at 10 mg/kg was 10%.

As to `CCCCCCNC(=O)Nc1ccc(S(=O)(=O)N2CCC(CNC[C@H](O)COc3cccc4[nH]c5ccccc5c34)CC2)cc1` [Example 58, 1-[4-(4-{[(2S)-3-(9H-Carbazol-4-yloxy)-2-hydroxy-propylamino]-methyl}-piperidine-1-sulfonyl)-phenyl]-3-hexyl-urea], the change in vivo at 10 mg/kg in series [1] (mouse type hetero) is -3%.

Take `O=C(NCCCc1cccs1)Nc1ccc(S(=O)(=O)N2CCC(CNC[C@H](O)COc3ccc(O)cc3)CC2)cc1` [Example 75, 1-[4-(4-1{[(2S)-2-Hydroxy-3-(4-hydroxy-phenoxy)-propylamino]-methyl}-piperidine-1-sulfonyl)-phenyl]-3-(3-thiophen-2-yl-propyl)-urea]: in series [1] (mouse type homo), the change in vivo at 10 mg/kg came out at 5%.

With `O=C(O)c1cccc(NC(=O)N2CCC(CNC[C@H](O)COc3cccc4[nH]c5ccccc5c34)CC2)c1` [Example 51, 3-[(4-{[(2S)-3-(9H-Carbazol-4-yloxy)-2-hydroxy-propylamino]-methyl}-piperidine-1-carbonyl)-amino]-benzoic Acid], the melting point was 238 to 240 °C (dec.).

In the case of `O[C@@H](CNCC1CCN(c2cc(C(F)(F)F)ccn2)CC1)COc1cccc2[nH]c3ccccc3c12` [Example 5, (2S)-1-(9H-Carbazol-4-yloxy)-3-[(4′-trifluoromethyl-3,4,5,6-tetrahydro-2H-[1,2′]bipyridinyl-4-ylmethyl)-amino]-propan-2-ol], the melting point was 137 to 138 °C.

`O=C(Nc1ccccc1)Nc1ccc(S(=O)(=O)N2CCC(CNC[C@H](O)COc3ccc(O)cc3)CC2)cc1` [Example 63, 1-[4-(4-{[(2S)-2-Hydroxy-3-(4-hydroxy-phenoxy)-propylamino]-methyl}-piperidine-1-sulfonyl)-phenyl]-3-phenyl-urea]: in series [1] (mouse type homo), the change in vivo at 10 mg/kg worked out at 3%.
